Laboratory results from PMC5429603, “Discovery and characterization of verinurad, a potent and specific inhibitor of URAT1 for the treatment of hyperuricemia and gout” (Scientific Reports, 2017).
Substitutions are numbered along the chain they refer to.

Experiments:
rat URAT1 r-T32C = target: T1, rat URAT1 r-T32C (Rattus norvegicus, UniProt Q3ZAV1, T32C); assay: URAT1 activity assay, r-T32C; type: cell-based
T1 construct: expressed in transfected cells; host or cells: HEK-293T
From the text: (§1) Human URAT1 (GenBank BC053348.1, Homo sapiens SLC22A12), rat URAT1 (NCBI NM_001034943.1, Rattus norvegicus Slc22a12) and human OAT4 (NCBI NM_018484.2, Homo sapiens SLC22A11) genes were purchased from Origene Technologies, Inc. and subcloned into pCMV6/neo using NotI. Where indicated, controls transfections used pCMV6/neo. Mutants were produced by site-directed mutagenesis using the QuikChange Lightning Multi Site-Directed Mutagenesis Kit (Agilent Technologies). […] Mutagenic primer sequences are provided in ref. [15] and mutagenic primer sequences for previously unreported mutants shown in Supplementary Table 1. All constructs used in this study were untagged. Human OAT1 was purchased from Fisher Scientific (catalog # MHS1010–7508183 in pSPORT6, NCBI NM_153276.2, Homo sapiens SLC22A6).
(§2) HEK-293T cells were maintained in DMEM/high glucose/L-glutamine/HEPES supplemented with 1 mM sodium pyruvate (Life Technologies) and 10% FBS (PAA Laboratories) at 37 °C in 5% CO2. […]
(§3) URAT1 and OAT4 activity assays were performed in assay buffer consisting of 25 mM MES pH 5.5 (from a 1 M MES solution [Sigma] adjusted to pH 5.5 with sodium hydroxide), 125 mM sodium gluconate, 4.8 mM potassium gluconate, 1.2 mM monobasic potassium phosphate, 1.2 mM magnesium sulfate, 1.3 mM calcium gluconate and 5.6 mM glucose. […] Each treatment was measured in triplicate.

human URAT1 h-V26T = target: T2, human URAT1 h-V26T (Homo sapiens, UniProt Q96S37, V26T); assay: URAT1 activity assay, h-V26T; type: cell-based; settings: TM1 point mutant, read-out: Verinurad affinity (IC50)
T2 construct: expressed in transfected cells; host or cells: HEK-293T
T2 sequence (Q96S37 whole entry V26T): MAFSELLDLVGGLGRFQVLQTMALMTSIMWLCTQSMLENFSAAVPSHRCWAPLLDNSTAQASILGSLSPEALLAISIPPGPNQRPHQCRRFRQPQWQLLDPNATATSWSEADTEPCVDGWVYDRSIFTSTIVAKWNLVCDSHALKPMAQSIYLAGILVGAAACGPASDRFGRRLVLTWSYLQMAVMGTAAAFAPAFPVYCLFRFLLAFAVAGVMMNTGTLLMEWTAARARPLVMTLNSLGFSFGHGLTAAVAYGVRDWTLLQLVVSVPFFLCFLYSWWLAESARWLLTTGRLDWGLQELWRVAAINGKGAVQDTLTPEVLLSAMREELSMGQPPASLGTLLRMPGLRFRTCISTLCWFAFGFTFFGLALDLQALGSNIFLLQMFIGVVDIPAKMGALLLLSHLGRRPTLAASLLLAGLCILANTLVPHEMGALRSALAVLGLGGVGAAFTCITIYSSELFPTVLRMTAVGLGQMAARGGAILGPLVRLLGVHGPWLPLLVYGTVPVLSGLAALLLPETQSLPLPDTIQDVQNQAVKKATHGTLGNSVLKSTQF
From the text: as §1, §2, §3

healthy human volunteers = tested on: healthy human volunteers; design: method as in PMID 28744099; settings: humans; cited from earlier work
rat URAT1 r-N35S = target: T3, rat URAT1 r-N35S (Rattus norvegicus, UniProt Q3ZAV1, N35S); assay: URAT1 activity assay, r-N35S; type: cell-based
T3 construct: expressed in transfected cells; host or cells: HEK-293T
T3 sequence (Q3ZAV1 whole entry N35S): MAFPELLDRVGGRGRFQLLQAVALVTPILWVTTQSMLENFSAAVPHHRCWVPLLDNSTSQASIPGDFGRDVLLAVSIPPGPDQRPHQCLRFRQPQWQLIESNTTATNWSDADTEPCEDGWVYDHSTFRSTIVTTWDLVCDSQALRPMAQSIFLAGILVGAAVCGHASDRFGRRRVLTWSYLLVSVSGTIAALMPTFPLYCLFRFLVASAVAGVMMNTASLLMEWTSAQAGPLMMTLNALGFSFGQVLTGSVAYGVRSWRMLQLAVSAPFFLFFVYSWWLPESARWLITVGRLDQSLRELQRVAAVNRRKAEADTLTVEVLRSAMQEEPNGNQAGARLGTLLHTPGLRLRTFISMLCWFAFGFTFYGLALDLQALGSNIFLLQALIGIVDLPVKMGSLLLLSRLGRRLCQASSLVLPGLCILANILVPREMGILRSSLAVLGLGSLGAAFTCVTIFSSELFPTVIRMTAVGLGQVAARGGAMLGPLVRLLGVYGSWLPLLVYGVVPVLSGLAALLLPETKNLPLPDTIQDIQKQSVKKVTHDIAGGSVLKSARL
From the text: as §1, §2, §3

human URAT1 = target: T4, human URAT1 (Homo sapiens, UniProt Q96S37); assay: URAT1 binding assay with 3H-verinurad, human URAT1 membranes
T4 sequence (Q96S37 1-553): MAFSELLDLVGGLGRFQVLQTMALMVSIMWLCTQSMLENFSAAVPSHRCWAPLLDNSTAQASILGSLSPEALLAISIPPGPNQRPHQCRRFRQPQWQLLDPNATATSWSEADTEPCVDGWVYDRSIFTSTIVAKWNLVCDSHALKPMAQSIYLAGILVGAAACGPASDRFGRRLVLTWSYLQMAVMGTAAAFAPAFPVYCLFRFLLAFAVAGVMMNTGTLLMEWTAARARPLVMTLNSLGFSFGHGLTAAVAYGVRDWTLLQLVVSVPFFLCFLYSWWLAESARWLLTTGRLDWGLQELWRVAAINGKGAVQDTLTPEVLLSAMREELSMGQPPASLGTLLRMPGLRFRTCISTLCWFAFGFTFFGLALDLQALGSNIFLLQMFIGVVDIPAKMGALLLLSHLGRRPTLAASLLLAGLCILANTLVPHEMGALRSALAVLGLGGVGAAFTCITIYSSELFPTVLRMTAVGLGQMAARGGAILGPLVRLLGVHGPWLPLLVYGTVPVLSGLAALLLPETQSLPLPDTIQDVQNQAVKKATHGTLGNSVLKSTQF
Procedure: Membranes were prepared from cells transfected on the previous day with URAT1 expression constructs. Cells (5–10 × 10^8) were harvested in 1 ml ice-cold binding buffer (25 mM HEPES pH 7.3, 125 mM sodium gluconate) containing complete, EDTA-free protease inhibitor cocktail (Sigma). Cells were lysed with 100 strokes in a 2 ml dounce homogenizer using a tight-fitting “B” stem. Lysates were transferred to 1.5 mL Eppendorf tubes and centrifuged at 250 rcf for 5 minutes at 2 °C, and supernatants were transferred to fresh tubes and centrifuged again at 18,000 rcf for 20 minutes at 2 °C. The pellets (membrane fractions) were resuspended in 1 ml of ice-cold binding buffer containing protease inhibitors and frozen at −80 °C. Protein was measured using the Bio-Rad protein assay dye reagent concentrate.
Samples were then rapidly filtered through 25 mm glass fiber/1.2 µM PES 96-well filter plates (Corning FiltrEX 3510), and washed once with 200 µl ice-cold binding buffer. The plates were then subjected to scintillation counting. All samples were assayed in triplicate.
GraphPad Prism software was used for non-linear regression and statistical analyses. […] For kinetic measurements (K m and B max values), the “one site – specific binding” equation was used, after subtracting transport or binding measurements from control transfected cells. Statistical significance was assessed using Student’s unpaired t-tests.

human URAT1-F449Y = target: T5, human URAT1-F449Y (Homo sapiens, UniProt Q96S37, F449Y); assay: URAT1 binding assay with 3H-verinurad, h-F449Y membranes
T5 construct: expressed in transfected cells; host or cells: HEK-293T
T5 sequence (Q96S37 whole entry F449Y): as the sequence (Q96S37 whole entry V26T) above, with T26V, F449Y counted along it
Procedure: The plates were then subjected to scintillation counting. All samples were assayed in triplicate.

human URAT1-F365Y = target: T6, human URAT1-F365Y (Homo sapiens, UniProt Q96S37, F365Y); assay: URAT1 activity assay, h-F365Y; type: cell-based
T6 construct: expressed in transfected cells; host or cells: HEK-293T
T6 sequence (Q96S37 whole entry F365Y): as the sequence (Q96S37 whole entry V26T) above, with T26V, F365Y counted along it
From the text: as §1, §2, §3

human URAT1 h-R477K = target: T7, human URAT1 h-R477K (Homo sapiens, UniProt Q96S37, R477K); assay: URAT1 activity assay, h-R477K; type: cell-based
T7 construct: expressed in transfected cells; host or cells: HEK-293T
T7 sequence (Q96S37 1-553 R477K): T4 sequence (Q96S37 1-553) with R477K
From the text: as §1
HEK-293T cells were maintained in DMEM/high glucose/L-glutamine/HEPES supplemented with 1 mM sodium pyruvate (Life Technologies) and 10% FBS (PAA Laboratories) at 37 °C in 5% CO2. To express URAT1, OAT4 or OAT1, plasmids were reverse transfected into HEK-293T cells. DNA (10 µg) was mixed with 30 µl of DreamFect Gold (Boca Scientific) in 2 ml OptiMem (Life Technologies). After 20 minutes, 18 ml of media containing 2 × 10^7 cells in suspension was added and mixed, and 200 µl per well were plated onto white clear-bottomed poly-D-lysine coated 96-well plates (BD Biosciences). The cells were assayed the following day.
URAT1 and OAT4 activity assays were performed in assay buffer consisting of 25 mM MES pH 5.5 (from a 1 M MES solution [Sigma] adjusted to pH 5.5 with sodium hydroxide), 125 mM sodium gluconate, 4.8 mM potassium gluconate, 1.2 mM monobasic potassium phosphate, 1.2 mM magnesium sulfate, 1.3 mM calcium gluconate and 5.6 mM glucose. URAT1 inhibitors were serially diluted into assay buffer and added to the cells for 5 minutes prior to addition of substrate. URAT1-expressing cells were incubated with 100 µM ^14C-uric acid for 10 minutes and OAT4-expressing cells were incubated with 20 µM carboxyfluorescein (Life Technologies, Inc.) for 5 minutes. Cells were then washed three times in 25 mM MES pH 5.5/125 mM sodium gluconate, and solubilized in Ultima Gold (Perkin Elmer) prior to liquid scintillation counting. Each treatment was measured in triplicate.

rat URAT1 r-V25M = target: T8, rat URAT1 r-V25M (Rattus norvegicus, UniProt Q3ZAV1, V25M); assay: URAT1 activity assay, r-V25M; type: cell-based
T8 construct: expressed in transfected cells; host or cells: HEK-293T
T8 sequence (Q3ZAV1 whole entry V25M): as the sequence (Q3ZAV1 whole entry N35S) above, with V25M, S35N counted along it
From the text: as §1, §2, §3

[1] = TM1 point mutant, read-out: Verinurad affinity (IC50)

T1 sequence (Q3ZAV1 whole entry T32C): as the sequence (Q3ZAV1 whole entry N35S) above, with T32C, S35N counted along it

SMILES: CC(C)(Sc1ccncc1-c1ccc(C#N)c2ccccc12)C(=O)O [Verinurad, 2-((3-(4-cyanonaphthalen-1-yl)pyrindin-4-yl)thio)-2-methylpropanoic acid]
- fold increase in affinity relative to rat URAT1 (rat URAT1 r-T32C): 1.4 fold
- IC50 (rat URAT1 r-T32C; [1]): 29000 ± 3100 nM
- IC50 (human URAT1 h-V26T): 14 ± 1.5 nM
- dose that significantly lowers sUA levels (healthy human volunteers): ≥ 5 mg
- fold higher affinity relative to rat URAT1 (rat URAT1 r-N35S): 4 fold
- IC50 (rat URAT1 r-N35S; [1]): 10000 ± 1500 nM
- IC50 (human URAT1): 7.8 nM
- Ki (human URAT1): 6.9 nM
- mode of inhibition of 3H-verinurad binding (human URAT1; human URAT1 membranes): competitive inhibition
- IC50 (human URAT1-F449Y; h-F449Y membranes, read-out: IC50, inhibition of 3H-verinurad binding to h-F449Y): 5.9 nM
- fold reduced potency at h-F449Y compared to wild type human URAT1, binding assay (human URAT1-F449Y; h-F449Y vs human URAT1): the same affinity
- fold lower affinity relative to human URAT1 (human URAT1-F365Y): 160 fold
- IC50 (human URAT1-F365Y; TM7 point mutant, read-out: Verinurad affinity (IC50)): 4000 ± 1700 nM
- fold reduced affinity compared to human URAT1 (human URAT1 h-R477K; h-R477K): 9 fold
- IC50 (human URAT1 h-R477K; h-R477K binding site point mutant): 230 nM
- fold increase in affinity (rat URAT1 r-V25M; r-V25M vs rat URAT1): 2.3 fold
- IC50 (rat URAT1 r-V25M; r-V25M, TM1 point mutant, read-out: Verinurad affinity (IC50)): 18000 ± 3200 nM
